# Source: patent publication US9738634B2, “Heterocyclic amide compound and herbicide” (SYNGENTA PARTICIPATIONS AG, priority 2013, dated 2017)
# Key:
# Assay type in all cases: in vivo
# [1] = tested on: barnyard grass; assay: Test Example 1: weedkilling efficacy, preemergent weed treatment in the submerged state; A: barnyard grass; conditions: treatment dosage 252 g/ha
# Outline: (§1)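 Emulsion diluted with water to the specified per-hectare dosage is applied onto flood water (4 cm) over alluvial soil on the sowing day, with barnyard grass, bulrush and pondweed seeded and rice (2.5-leaf) transplanted; plants grow at 25–30 °C and are rated at 3 weeks.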
# [2] = tested on: bulrush; assay: Test Example 1: weedkilling efficacy, preemergent weed treatment in the submerged state; B: bulrush; conditions: treatment dosage 252 g/ha
# Outline: as §1
# [3] = tested on: oval-leafed pondweed; assay: Test Example 1: weedkilling efficacy, preemergent weed treatment in the submerged state; C: oval-leafed pondweed; conditions: treatment dosage 252 g/ha
# Outline: as §1
# [4] = tested on: transplanted rice; assay: Test Example 1: preemergent weed treatment in the submerged state, effect on crop; a: transplanted rice; conditions: treatment dosage 252 g/ha
# Outline: as §1
# [5] = tested on: barnyard grass; assay: Test Example 2: weedkilling efficacy, growth period weed treatment in the submerged state; A: barnyard grass; conditions: treatment dosage 252 g/ha
# Outline: (§2)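 First, alluvial soil in pots is flooded to 4 cm and mixed seed is sown. Next, plants grow in a greenhouse at 25 to 30° C until the 1-2 leaf stage. Then diluted emulsion is applied onto the water surface at the given g/ha rate, and injury is assessed after 3 weeks.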
# [6] = tested on: bulrush; assay: Test Example 2: weedkilling efficacy, growth period weed treatment in the submerged state; B: bulrush; conditions: treatment dosage 252 g/ha
# Outline: as §2
# [7] = tested on: oval-leafed pondweed; assay: Test Example 2: weedkilling efficacy, growth period weed treatment in the submerged state; C: oval-leafed pondweed; conditions: treatment dosage 252 g/ha
# Outline: as §2
# [8] = tested on: crabgrass; assay: Test Example 3: weedkilling efficacy through soil treatment; D: crabgrass; conditions: treatment dosage 315 g/ha
# Outline: (§3)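 Crop and weed responses were judged three weeks after a uniform surface spray of the water-diluted emulsion at the given g/ha rate. Seeds sat beneath about 1.5 cm of sterilized diluvial soil, and boxes stood in a greenhouse at 25 to 30° C.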
# [9] = tested on: green foxtail; assay: Test Example 3: weedkilling efficacy through soil treatment; E: green foxtail; conditions: treatment dosage 315 g/ha
# Outline: as §3
# [10] = tested on: black-grass; assay: Test Example 3: weedkilling efficacy through soil treatment; H: black-grass; conditions: treatment dosage 315 g/ha
# Outline: as §3
# [11] = tested on: Italian ryegrass; assay: Test Example 3: weedkilling efficacy through soil treatment; I: Italian ryegrass; conditions: treatment dosage 315 g/ha
# Outline: as §3
# [12] = tested on: Indian mallow; assay: Test Example 3: weedkilling efficacy through soil treatment; K: Indian mallow; conditions: treatment dosage 315 g/ha
# Outline: as §3
# [13] = tested on: redroot pigweed; assay: Test Example 3: weedkilling efficacy through soil treatment; L: redroot pigweed; conditions: treatment dosage 315 g/ha
# Outline: as §3
# [14] = tested on: chickweed; assay: Test Example 3: weedkilling efficacy through soil treatment; N: chickweed; conditions: treatment dosage 315 g/ha
# Outline: as §3
# [15] = tested on: birds-eye speedwell; assay: Test Example 3: weedkilling efficacy through soil treatment; p: birds-eye speedwell; conditions: treatment dosage 315 g/ha
# Outline: as §3
# [16] = tested on: directly sown rice; assay: Test Example 3: soil treatment, effect on crop; b: directly sown rice; conditions: treatment dosage 315 g/ha
# Outline: as §3
# [17] = tested on: corn; assay: Test Example 3: soil treatment, effect on crop; c: corn; conditions: treatment dosage 315 g/ha
# Outline: as §3
# [18] = tested on: soybean; assay: Test Example 3: soil treatment, effect on crop; d: soybean; conditions: treatment dosage 315 g/ha
# Outline: as §3
# [19] = tested on: wheat; assay: Test Example 3: soil treatment, effect on crop; e: wheat; conditions: treatment dosage 315 g/ha
# Outline: as §3
# [20] = tested on: beet; assay: Test Example 3: soil treatment, effect on crop; f: beet; conditions: treatment dosage 315 g/ha
# Outline: as §3
# [21] = tested on: crabgrass; assay: Test Example 4: weedkilling efficacy by foliar treatment; D: crabgrass; conditions: treatment dosage 315 g/ha
# Method: (§4) Testing of Weedkilling Efficacy by Foliar Treatment
# (§5) Sterilized diluvial soil was introduced into 21 cm long, 13 cm wide, 7 cm deep plastic boxes, and seeds of crabgrass, green foxtail, barnyard grass, wild oat, black-grass, Italian ryegrass, common wind-grass, Indian mallow, redroot pigweed, fig-leafed goosefoot, chickweed, catchweed, birds-eye speedwell, corn, soybean, rice, wheat, beet and rapeseed were each spot-sown, and covered with about 1.5 cm of soil, then the plants were grown in a greenhouse at 25 to 30° C.
# (§6) After they had grown for 14 days, emulsions of compounds of the present invention prepared according to compounding example 2 were diluted with water to give the specified dosages, and applied uniformly onto the stem and leaf parts with a small sprayer. 3 weeks after the pesticide treatment the effect on each type of plant was investigated on the basis of the assessment criteria of test example 1.
# (§7) A: barnyard grass, B: bulrush, C: oval-leafed pondweed, D: crabgrass, E: green foxtail, F: barnyard grass, G: wild oat, H: black-grass, I: Italian ryegrass, J: common wind-grass, K: Indian mallow, L: redroot pigweed, M: fig-leafed goosefoot, N: chickweed, O: catchweed, p: birds-eye speedwell, a: transplanted rice, b: directly sown rice, c: corn, d: soybean, e: wheat, f: beet, g: rapeseed
# (§8) Further, pesticide dosage (g/ha) indicates the concentration regulated such that treatment was with only the stated number of grams (g), when calculated per hectare (ha).
# [22] = tested on: green foxtail; assay: Test Example 4: weedkilling efficacy by foliar treatment; E: green foxtail; conditions: treatment dosage 315 g/ha
# Method: as §4, §5, §6, §7, §8
# [23] = tested on: black-grass; assay: Test Example 4: weedkilling efficacy by foliar treatment; H: black-grass; conditions: treatment dosage 315 g/ha
# Method: as §4, §5, §6, §7, §8
# [24] = tested on: Italian ryegrass; assay: Test Example 4: weedkilling efficacy by foliar treatment; I: Italian ryegrass; conditions: treatment dosage 315 g/ha
# Method: as §4, §5, §6, §7, §8
# [25] = tested on: Indian mallow; assay: Test Example 4: weedkilling efficacy by foliar treatment; K: Indian mallow; conditions: treatment dosage 315 g/ha
# Method: as §4, §5, §6, §7, §8
# [26] = tested on: redroot pigweed; assay: Test Example 4: weedkilling efficacy by foliar treatment; L: redroot pigweed; conditions: treatment dosage 315 g/ha
# Method: as §4, §5, §6, §7, §8
# [27] = tested on: fig-leafed goosefoot; assay: Test Example 4: weedkilling efficacy by foliar treatment; M: fig-leafed goosefoot; conditions: treatment dosage 315 g/ha
# Method: as §4, §5, §6, §7, §8
# [28] = tested on: chickweed; assay: Test Example 4: weedkilling efficacy by foliar treatment; N: chickweed; conditions: treatment dosage 315 g/ha
# Method: as §4, §5, §6, §7, §8
# [29] = tested on: catchweed; assay: Test Example 4: weedkilling efficacy by foliar treatment; O: catchweed; conditions: treatment dosage 315 g/ha
# Method: as §4, §5, §6, §7, §8
# [30] = tested on: birds-eye speedwell; assay: Test Example 4: weedkilling efficacy by foliar treatment; p: birds-eye speedwell; conditions: treatment dosage 315 g/ha
# Method: as §4, §5, §6, §7, §8
# [31] = tested on: directly sown rice; assay: Test Example 4: foliar treatment, effect on crop; b: directly sown rice; conditions: treatment dosage 315 g/ha
# Method: as §4, §5, §6, §7, §8
# [32] = tested on: corn; assay: Test Example 4: foliar treatment, effect on crop; c: corn; conditions: treatment dosage 315 g/ha
# Method: as §4, §5, §6, §7, §8
# [33] = tested on: soybean; assay: Test Example 4: foliar treatment, effect on crop; d: soybean; conditions: treatment dosage 315 g/ha
# Method: as §4, §5, §6, §7, §8
# [34] = tested on: wheat; assay: Test Example 4: foliar treatment, effect on crop; e: wheat; conditions: treatment dosage 315 g/ha
# Method: as §4, §5, §6, §7, §8
# [35] = tested on: beet; assay: Test Example 4: foliar treatment, effect on crop; f: beet; conditions: treatment dosage 315 g/ha
# Method: as §4, §5, §6, §7, §8
smiles,measurement,setting,value
COc1nsc(NC(=O)C(C)(C)N2COC(C)=C(c3ccccc3)C2=O)n1 [B-1-15],A (barnyard grass) weedkilling efficacy grade,[1],"5 (weed kill ratio 90% or more, (practically complete withering))"
same,B (bulrush) weedkilling efficacy grade,[2],"5 (weed kill ratio 90% or more, (practically complete withering))"
same,C (oval-leafed pondweed) weedkilling efficacy grade,[3],"5 (weed kill ratio 90% or more, (practically complete withering))"
same,a (transplanted rice) effect on crop grade,[4],0 (weed kill ratio 5% or less (practically no effect))
same,A (barnyard grass) weedkilling efficacy grade,[5],"4 (weed kill ratio 70% or more, less than 90%)"
same,B (bulrush) weedkilling efficacy grade,[6],"5 (weed kill ratio 90% or more, (practically complete withering))"
same,C (oval-leafed pondweed) weedkilling efficacy grade,[7],"5 (weed kill ratio 90% or more, (practically complete withering))"
same,D (crabgrass) weedkilling efficacy grade,[8],"5 (weed kill ratio 90% or more, (practically complete withering))"
same,E (green foxtail) weedkilling efficacy grade,[9],"5 (weed kill ratio 90% or more, (practically complete withering))"
same,H (black-grass) weedkilling efficacy grade,[10],"5 (weed kill ratio 90% or more, (practically complete withering))"
same,I (Italian ryegrass) weedkilling efficacy grade,[11],"5 (weed kill ratio 90% or more, (practically complete withering))"
same,K (Indian mallow) weedkilling efficacy grade,[12],"4 (weed kill ratio 70% or more, less than 90%)"
same,L (redroot pigweed) weedkilling efficacy grade,[13],"5 (weed kill ratio 90% or more, (practically complete withering))"
same,N (chickweed) weedkilling efficacy grade,[14],"5 (weed kill ratio 90% or more, (practically complete withering))"
same,P (birds-eye speedwell) weedkilling efficacy grade,[15],"5 (weed kill ratio 90% or more, (practically complete withering))"
same,b (directly sown rice) effect on crop grade,[16],"5 (weed kill ratio 90% or more, (practically complete withering))"
same,c (corn) effect on crop grade,[17],0 (weed kill ratio 5% or less (practically no effect))
same,d (soybean) effect on crop grade,[18],0 (weed kill ratio 5% or less (practically no effect))
same,e (wheat) effect on crop grade,[19],"4 (weed kill ratio 70% or more, less than 90%)"
same,f (beet) effect on crop grade,[20],"4 (weed kill ratio 70% or more, less than 90%)"
same,D (crabgrass) weedkilling efficacy grade,[21],"5 (weed kill ratio 90% or more, (practically complete withering))"
same,E (green foxtail) weedkilling efficacy grade,[22],"5 (weed kill ratio 90% or more, (practically complete withering))"
same,H (black-grass) weedkilling efficacy grade,[23],"5 (weed kill ratio 90% or more, (practically complete withering))"
same,I (Italian ryegrass) weedkilling efficacy grade,[24],"4 (weed kill ratio 70% or more, less than 90%)"
same,K (Indian mallow) weedkilling efficacy grade,[25],"5 (weed kill ratio 90% or more, (practically complete withering))"
same,L (redroot pigweed) weedkilling efficacy grade,[26],"5 (weed kill ratio 90% or more, (practically complete withering))"
same,M (fig-leafed goosefoot) weedkilling efficacy grade,[27],"3 (weed kill ratio 40% or more, less than 70%)"
same,N (chickweed) weedkilling efficacy grade,[28],"4 (weed kill ratio 70% or more, less than 90%)"
same,O (catchweed) weedkilling efficacy grade,[29],"4 (weed kill ratio 70% or more, less than 90%)"
same,P (birds-eye speedwell) weedkilling efficacy grade,[30],"4 (weed kill ratio 70% or more, less than 90%)"
same,b (directly sown rice) effect on crop grade,[31],"4 (weed kill ratio 70% or more, less than 90%)"
same,c (corn) effect on crop grade,[32],"4 (weed kill ratio 70% or more, less than 90%)"
same,d (soybean) effect on crop grade,[33],"4 (weed kill ratio 70% or more, less than 90%)"
same,e (wheat) effect on crop grade,[34],"3 (weed kill ratio 40% or more, less than 70%)"
same,f (beet) effect on crop grade,[35],"4 (weed kill ratio 70% or more, less than 90%)"
